Like-named read-outs stand apart in the source and are kept apart here.
Experiments:
yeast-mold isolate = assay: Coupon testing for bio-load removal study (five step sanitation program); assay type: cell-based, yeast-mold isolate from a beverage plant; conditions: silicon rubber coupon pre-treated with the labelled agent, inoculated, then five step sanitation program (2600 ppm Vortexx, 40° C., 15 minutes)
Procedure: The same yeast-mold isolates as in the antimicrobial treatment method were grown up for inoculation onto the coupons. The coupons were inoculated with the isolates. The coupons were then subjected to the inventive five step method involving an initial rinse step, a detergent wash step, an intermediate rinse step, an antimicrobial treatment step, and a final rinse step. The coupons were first placed in 1000 ml of ambient water for 10 minutes. The coupons were then placed in 1000 ml of a wash solution for 60 minutes. The coupons were then placed in a 2600 ppm solution Vortexx™ at 40° C. for 15 minutes. Finally, the coupons were placed in a jar containing sterile water. The carriers were than placed in 25 ml of 0.5% sodium thiosulfate neutralizing solution to suspend any surviving organisms. The neutralizing solution was then filtered and plated on Sabouraud's Dextrose Agar in order to determine the number of surviving organisms.

[1] = test system: yeast-mold isolate (1/3 black fungal isolate, 1/3 gray fungal isolate, 1/3 Yarrowia lipolytica); assay type: cell-based, yeast-mold isolate from a beverage plant
[2] = 185 F. water, 15 minute contact, Stainless Steel coupon, no pre-treatment

For `O` [185 F. Water, water], the “Percent Reduction (avg of 3)” value (yeast-mold isolate) was 38.3%, the log reduction (yeast-mold isolate; listed as 185° F. Water) was <1 log and the log reduction (yeast-mold isolate; listed as 185° F. water) was 1 log. For the same compound, the “Percent Reduction” value ([1]; 185 F. water, 15-minute contact, BUNA N coupon, pH 2.3 phosphoric acid 104 F. 2 weeks) was >99.5%, the “Percent Reduction” value ([1]; 185 F. water, 15-minute contact, BUNA N coupon, pH 13 caustic 185 F. 2 weeks) was >99.8% and the “Filter Survivors” value [1, 2] was <1 CFU. For the same compound, the “Percent Reduction” value [1, 2] was >99.9% and the log reduction ([1]; stainless steel coupon, not preconditioned, Table 2 treatments) was 3 log.

Source: patent US6991685B2, “Low temperature cleaning” (Ecolab Inc., priority 2003, dated 2006)
